Measurements: ChEMBL document CHEMBL1146044, “Synthesis, enzymatic inhibition, and cancer cell growth inhibition of novel delta-lactam-based histone deacetylase (HDAC) inhibitors” (Bioorg Med Chem Lett, 2006)
The source made the active and inactive calls. The rule behind the calls is not given here.

Experiments:
Assay type in all cases: functional
NCI-H23 = test: Antiproliferative activity against human NCI-H23 cells by SRB assay
LOX IMVI = test: Antiproliferative activity against human LOX-IMVI cells by SRB assay
PC-3 = test: Antiproliferative activity against human PC3 cells by SRB assay
HCT-15 = test: Antiproliferative activity against human HCT15 cells by SRB assay
ACHN = test: Antiproliferative activity against human ACHN cells by SRB assay
MDA-MB-231 = test: Antiproliferative activity against human MDA-MB-231 cells by SRB assay

SMILES | GI50 (NCI-H23) | GI50 (PC-3) | also measured
O=C(CCCCCCC(=O)Nc1ccccc1)NO [VORINOSTAT] |  |  | GI50 (MDA-MB-231): 0.66 µM; GI50 (HCT-15): 0.82 µM
COc1ccc(CN2CCC=C(CCC(=O)NO)C2=O)c(OC)c1 | > 10 µM |  | 
C=CCN1CCC=C(CCC(=O)NO)C1=O |  | inactive | 

The next lines start with results.

GI50 (NCI-H23) | GI50 (PC-3) | SMILES | also measured
> 10 µM | > 10 µM | O=C(CCC1=CCCN(Cc2ccccc2)C1=O)NO | GI50 (LOX IMVI): > 10 µM; GI50 (HCT-15; Homo sapiens, HCT-15): > 10 µM; GI50 (ACHN): > 10 µM
> 10 µM |  | O=C(CCC1=CCCN(CCc2ccccc2)C1=O)NO | 
